Source: the supplement of paper PMC10307832

How the values were obtained:
Assay in all cases: relative viability (nuclei count vs DMSO), 5 days (fraction); higher = more cells survive
[1] = compound: Cn1cc(-c2cnc3ccc4ccc(CS(=O)(=O)NCc5ccccn5)cc4c(=O)c3c2)cn1 [MK-8033] + O=C(CCCCCCC(=O)Nc1ccccc1)NO [Vorinostat] (partner 1 µM)
How it was run: (§1)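 Relative viability divides the nuclei count in treated wells by that in vehicle wells. Lung cancer cell lines were seeded in 1536-well plates, dosed by pin tool the next day, and fixed and stained after 5 days in one step with final 0.05% Triton X-100, 1% formaldehyde and 1 ug/ml Hoechst. Dosing was a single drug or a fixed anchor-drug dose plus five library-drug doses (not always all listed) in √10 steps, and values are medians of duplicate plates imaged at 4×.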

[2] = compound: CCc1c2c(nc3ccc(OC(=O)N4CCC(N5CCCCC5)CC4)cc13)-c1cc3c(c(=O)n1C2)COC(=O)[C@]3(O)CC [Irinotecan] + CC1(C)CCC(c2ccc(Cl)cc2)=C(CN2CCN(c3ccc(C(=O)NS(=O)(=O)c4ccc(N[C@H](CCN5CCOCC5)CSc5ccccc5)c(S(=O)(=O)C(F)(F)F)c4)cc3)CC2)C1 [Navitoclax] (partner 0.5 µM)
How it was run: as §1

[3] = compound: Cn1cc(-c2cnc3ccc4ccc(CS(=O)(=O)NCc5ccccn5)cc4c(=O)c3c2)cn1 [MK-8033] + NC(=O)Nc1cc(-c2cccc(F)c2)sc1C(=O)N[C@H]1CCCNC1 [AZD7762] (partner 0.2 µM)
How it was run: as §1

[4] = compound: Cn1cc(-c2cnc3ccc4ccc(CS(=O)(=O)NCc5ccccn5)cc4c(=O)c3c2)cn1 [MK-8033] + Nc1ncn([C@H]2C[C@H](O)[C@@H](CO)O2)c(=O)n1 [Decitabine] (partner 2 µM)
How it was run: as §1

| Cell Line | relative viability ([1]; first compound 0.02 µM) | relative viability ([1]; first compound 0.06325 µM) | relative viability ([1]; first compound 0.2 µM) | relative viability ([1]; first compound 2 µM) | relative viability ([2]; first compound 0.6325 µM) | relative viability ([2]; first compound 2 µM) | relative viability ([2]; first compound 6.325 µM) | relative viability ([2]; first compound 20 µM) | relative viability ([3]; first compound 0.02 µM) | relative viability ([3]; first compound 0.06325 µM) | relative viability ([3]; first compound 0.2 µM) | relative viability ([3]; first compound 2 µM) | relative viability ([4]; first compound 0.02 µM) | relative viability ([4]; first compound 0.06325 µM) | relative viability ([4]; first compound 0.2 µM) | relative viability ([4]; first compound 2 µM) | relative viability ([1]; first compound 0.6325 µM) | relative viability ([3]; first compound 0.6325 µM) | relative viability ([4]; first compound 0.6325 µM) |
| --- | --- | --- | --- | --- | --- | --- | --- | --- | --- | --- | --- | --- | --- | --- | --- | --- | --- | --- | --- |
| NCI-H23 | 0.678 | 0.455 | 0.405 | 0.587 | 0.782 | 0.505 | 0.26 | 0.22 | 0.302 | 0.231 | 0.215 | 0.249 | 0.282 | 0.332 | 0.3 | 0.299 | – | – | – |
| LOU-NH91 | 0.923 | 0.638 | 0.835 | 0.92 | 0.578 | 0.526 | 0.32 | 0.275 | 0.816 | 0.624 | 0.76 | 0.814 | 0.792 | 0.662 | 0.789 | 0.813 | 0.86 | 0.807 | 0.789 |
| HCC-15 | 0.898 | 0.767 | 0.752 | 0.798 | 0.5 | 0.209 | 0.147 | 0.167 | 1.06 | 1.31 | 0.978 | 1.18 | 0.62 | 0.595 | 0.548 | 0.653 | 0.738 | 1.31 | 0.57 |
| NCI-H838 | 0.765 | 0.67 | 0.674 | 0.734 | 1.14 | 0.754 | 0.4 | 0.266 | 0.904 | 0.92 | 0.945 | 0.862 | 0.458 | 0.442 | 0.476 | 0.445 | 0.736 | 0.901 | 0.469 |
| NCI-H460 | 0.79 | 0.473 | 0.656 | 0.726 | 0.779 | 0.165 | 0.0691 | 0.053 | 0.77 | 0.673 | 0.571 | 0.598 | 0.525 | 0.439 | 0.446 | 0.475 | 0.742 | 0.505 | 0.451 |
| NCI-H1793 | 0.675 | – | 0.559 | 0.618 | – | 0.447 | 0.347 | 0.664 | 0.442 | – | 0.331 | 0.328 | 0.486 | – | 0.51 | 0.543 | 0.713 | 0.413 | 0.379 |
| NCI-H596 | 0.59 | 0.629 | 0.549 | 0.568 | 0.932 | 0.752 | 0.412 | 0.443 | 1.04 | 0.995 | 1.01 | 0.985 | 0.987 | 0.901 | 0.921 | 1.03 | 0.64 | 1.04 | 1.12 |
| NCI-H2347 | 0.544 | 0.537 | 0.501 | 0.597 | 0.648 | 0.477 | 0.348 | 0.277 | 0.717 | 0.784 | 0.68 | 0.831 | 0.548 | 0.608 | 0.571 | 0.685 | 0.717 | 0.722 | 0.54 |
| 201T | 0.956 | 0.926 | 0.791 | 0.962 | – | 1.12 | 0.729 | 0.451 | 0.7 | 0.481 | 0.607 | 0.618 | 0.9 | 0.868 | 0.851 | 0.876 | 0.949 | 0.683 | 0.873 |
| NCI-H1734 | 0.874 | 0.639 | 0.698 | 0.758 | 0.618 | 0.376 | 0.156 | 0.188 | 0.544 | 0.361 | 0.522 | 0.54 | 0.562 | 0.463 | 0.478 | 0.481 | 0.836 | 0.572 | 0.504 |
| NCI-H1993 | 0.688 | 0.644 | 0.587 | 0.638 | 0.97 | 0.834 | 0.588 | 0.812 | 0.657 | 0.679 | 0.584 | 0.407 | 0.488 | 0.624 | 0.557 | 0.546 | 0.571 | 0.529 | 0.563 |
| NCI-H1755 | 0.748 | 0.791 | 0.75 | 0.766 | 0.886 | 0.283 | 0.221 | 0.287 | 0.487 | 0.35 | 0.384 | 0.452 | 0.743 | 0.673 | 0.769 | 0.691 | 0.678 | 0.401 | 0.64 |
| PC-14 | 0.708 | 0.52 | 0.683 | 0.599 | 0.987 | 0.876 | 0.196 | 0.147 | 0.357 | 0.296 | 0.351 | 0.354 | 0.214 | 0.176 | 0.225 | 0.183 | 0.797 | 0.302 | 0.212 |
| LK-2 | 0.245 | 0.259 | 0.397 | 0.357 | 0.858 | 0.754 | 0.406 | 0.255 | 0.454 | 0.288 | 0.316 | 0.427 | 0.299 | 0.3 | 0.322 | 0.343 | 0.307 | 0.363 | 0.339 |
| HCC-827 | 1.1 | – | 0.8 | 0.959 | 0.591 | 0.278 | 0.244 | 0.237 | 0.259 | – | 0.196 | 0.238 | 0.345 | – | 0.322 | 0.37 | 0.907 | 0.207 | 0.376 |
| LCLC-97TM1 | 0.662 | 0.48 | – | 0.761 | 0.254 | 0.256 | 0.218 | 0.163 | 0.248 | 0.338 | 0.268 | 0.222 | 0.218 | 0.207 | – | 0.211 | 0.825 | 0.227 | 0.209 |
